Measurements: ChEMBL document CHEMBL1201862, “PubChem BioAssay data set” (2004)
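Assay format: 96-well plates, 48-hour exposure. GI50: concentration for 50% inhibition of growth.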 Active and inactive are the calls of the source. Cut-off read from the data, not from the text of the source: active = GI50 up to about 1.1 µM and inactive = higher.

Legend:
Assay in all cases: growth of human tumour cells (NCI), 48 h
786-0 = system: 786-0
A498 = system: A498
A549 = system: A549
ACHN = system: ACHN
COLO 205 = system: COLO 205
DU-145 = system: DU-145
HOP-92 = system: HOP-92
IGROV-1 = system: IGROV-1
KM12 = system: KM12
M14 = system: M14
MDA-MB-435 = system: MDA-MB-435
NCI-H226 = system: NCI-H226
OVCAR-4 = system: OVCAR-4
OVCAR-5 = system: OVCAR-5
RPMI-8226 = system: RPMI-8226
SF-539 = system: SF-539
SK-MEL-28 = system: SK-MEL-28
SN12C = system: SN12C
SNB-75 = system: SNB-75
UO-31 = system: UO-31

Measured: GI50

CC(C)Oc1cccc(N2C(NCc3c[nH]c4ccccc34)=Nc3ccncc3S2(=O)=O)c1
inactive: 786-0 30.3 µM | A498 28.8 µM | A549 20.4 µM | ACHN 20.4 µM | COLO 205 11.2 µM | DU-145 42.8 µM | HOP-92 15.4 µM | IGROV-1 20.4 µM | KM12 33.3 µM | M14 21 µM | MDA-MB-435 32.4 µM | NCI-H226 45.4 µM | OVCAR-4 34.4 µM | OVCAR-5 47.8 µM | RPMI-8226 7.01 µM | SF-539 53.6 µM | SK-MEL-28 45.8 µM | SN12C 39.5 µM | SNB-75 18.3 µM | UO-31 47.4 µM

CNC(=O)C1CCC(=O)N1CN(C(C)=O)c1ccccc1 (stereo not given)
inactive: 786-0 > 100 µM | A498 > 100 µM | A549 > 100 µM | ACHN > 100 µM | COLO 205 > 100 µM | DU-145 > 100 µM | HOP-92 > 100 µM | IGROV-1 > 100 µM | KM12 > 100 µM | M14 > 100 µM | MDA-MB-435 > 100 µM | NCI-H226 > 100 µM | OVCAR-4 > 100 µM | OVCAR-5 > 100 µM | RPMI-8226 > 100 µM | SF-539 > 100 µM | SK-MEL-28 > 100 µM | SN12C > 100 µM | SNB-75 > 100 µM | UO-31 > 100 µM

CN(C)CCNc1nc2c(no[n+]2[O-])c2ccccc12.[O-][Cl+3]([O-])([O-])O
inactive: 786-0 18.7 µM | A498 13.7 µM | A549 16.7 µM | ACHN 13.8 µM | COLO 205 16.9 µM | DU-145 6.19 µM | HOP-92 22.1 µM | IGROV-1 18 µM | KM12 21.1 µM | M14 15.7 µM | MDA-MB-435 18 µM | NCI-H226 16.1 µM | OVCAR-4 30.4 µM | OVCAR-5 38 µM | RPMI-8226 52.7 µM | SF-539 11.5 µM | SK-MEL-28 18.5 µM | SN12C 25.6 µM | SNB-75 23.7 µM | UO-31 19.5 µM

CCCCCCCCOc1ccc(/C=C/C2=[N+](CCO)CCO2)cc1
inactive: 786-0 3.72 µM | A498 2.9 µM | A549 2.7 µM | ACHN 3.69 µM | COLO 205 2.42 µM | DU-145 5 µM | HOP-92 2.34 µM | IGROV-1 3.83 µM | KM12 3.27 µM | M14 3.8 µM | MDA-MB-435 3.52 µM | NCI-H226 3.01 µM | OVCAR-4 3.6 µM | OVCAR-5 9.42 µM | RPMI-8226 2.2 µM | SF-539 3.12 µM | SK-MEL-28 4.53 µM | SN12C 3.18 µM | SNB-75 2.67 µM | UO-31 12.3 µM
